Reference: publication PMC7946667 (Cancer Chemotherapy and Pharmacology, 2021)
“And” between values parts separate entries of the source, which are not always exact repeats. Equal entries are not always repeated. Where two headings read alike, the source gives them in different places.

How the values were obtained:
CYP3A [1] = test: Clinical DDI study: pharmacokinetics of midazolam (CYP3A probe substrate) and 1′-hydroxymidazolam with and without ceritinib; type: in vivo, human; conditions: for Metabolite-to-parent ratio: AUC0–144 h based, molecular weight corrected; for AUC(0-inf): read-out: AUC0-inf, adjusted geometric mean; for classification as CYP3A inhibitor: based on midazolam AUC increase, ceritinib 750 mg QD
Source text: This was a multicenter, open-label, single sequence, crossover phase I study (ClinicalTrials.gov identifier: NCT02422589) and was divided into two phases, DDI phase and post-DDI treatment phase (Fig. 1). Patients were recruited from 10 clinical centers located across 4 countries, namely Spain (n = 3), United States (n = 3), Italy (n = 3), and Denmark (n = 1).
To assess the pharmacokinetics of probe substrates, blood samples were obtained on Days 1 and 28 at pre-dose and at 0.25, 0.5, 1, 2, 3, 4, 6, 8, 10, 24, 48, 72, 96, 120, and 144 h post-dose. […] A blood sample for CYP2C9 genotyping was collected on Day 1 of the DDI phase from all participating patients. Patients were categorized as CYP2C9 poor, intermediate, or extensive metabolizers based on the genotype testing results. This assessment was of exploratory nature and was not used as inclusion/exclusion criteria in the study.
A linear mixed-effects model was fitted to the log-transformed primary PK parameters (Cmax, AUC0-144 h, and AUC0-inf) and included a fixed effect for treatment and a random effect for subject.

CYP3A [2] = conditions: PBPK, cited from earlier work
[3] = Safety and tolerability (adverse events) of ceritinib 750 mg QD in patients
Description: (§1) Adverse events (AEs) were coded using the Medical Dictionary for Regulatory Activities version 20.1 and were graded using Common Terminology Criteria for Adverse Events version 4.03. All patients were followed up for AEs and serious AEs (SAEs) for at least 30 days following the last dose of study treatment at the end of treatment phase. Tumor evaluation was performed at screening visit within 28 days prior to study treatment (Day 1 of DDI phase) using contrast enhanced computed tomography (or magnetic resonance imaging). Assessments of tumor response were performed every two cycles (i.e., every 6 weeks) through Cycle 9. ORR and DOR by investigator assessment was reported per Response Evaluation Criteria in Solid Tumors (RECIST) 1.1.

[4] = tested on: advanced ALK-positive tumors; test: Antitumor activity (best overall response, ORR, DCR per RECIST 1.1, investigator assessment); type: in vivo, human
Description: as §1

CYP2C9 [5] = conditions: based on S-warfarin AUC increase, ceritinib 750 mg QD
CYP3A4/5 = conditions: cited from earlier work
CYP2C9 [6] = conditions: cited from earlier work
CYP1A2 = conditions: cited from earlier work
CYP2D6 = conditions: cited from earlier work
CYP2B6 = conditions: cited from earlier work
CYP2C8 = conditions: cited from earlier work
CYP2C19 = conditions: cited from earlier work
CYP2A6 = conditions: HLM, of more minor clinical relevance; cited from earlier work
CYP3A [7] = conditions: in vitro HLM studies; cited from earlier work
[8] = cited from earlier work
[9] = midazolam 2.5 mg single oral dose + ceritinib 750 mg QD at steady state (Day 28), patient plasma, geometric mean (CV%)
[10] = midazolam 2.5 mg single oral dose alone (Day 1), patient plasma, geometric mean (CV%)
[11] = midazolam + ceritinib vs midazolam alone
[12] = midazolam 2.5 mg single oral dose + ceritinib 750 mg QD (Day 28), geometric mean (CV%)
[13] = midazolam 2.5 mg single oral dose alone (Day 1), geometric mean (CV%)
[14] = All Patients N=33, ceritinib 750 mg QD
[15] = NSCLC N=19, ceritinib 750 mg QD
[16] = Other tumors N=14, ceritinib 750 mg QD
[17] = HLM, read-out: IC50, reversible inhibition
[18] = HLM, read-out: Ki, reversible inhibition
[19] = ceritinib concentrations up to 50 µM
[20] = HLM, of more minor clinical relevance

**Q.** For `OCc1ncc2n1-c1ccc(Cl)cc1C(c1ccccc1F)=NC2` [1′-hydroxymidazolam], which Tmax (CYP3A [1]; midazolam 2.5 mg single oral dose + ceritinib 750 mg QD (Day 28), median [min, max]) is on record?
**A.** Its Tmax is 0.583 [0.250; 2.53] h.

**Q.** What about the “AUC0–144 h” value (CYP3A [1]; [9]) of the same compound?
**A.** Its value is 12.1 (87.0) h*ng/mL.

**Q.** And the Cmax (CYP3A [1]; [9])?
**A.** Its Cmax is 1.90 (73.8) ng/mL.

**Q.** What about the Tmax (CYP3A [1]; midazolam 2.5 mg single oral dose alone (Day 1), median [min, max]) of the same compound?
**A.** Its Tmax is 0.500 [0.217; 2.00] h.

**Q.** And the “AUC0–144 h” value (CYP3A [1]; [10])?
**A.** The value was 14.7 (74.4) h*ng/mL.

**Q.** And the Cmax (CYP3A [1]; [10])?
**A.** The Cmax was 5.41 (74.1) ng/mL.

**Q.** And the Metabolite-to-parent ratio (CYP3A [1]; midazolam + ceritinib 750 mg QD (Day 28), geometric mean (CV%))?
**A.** Its Metabolite-to-parent ratio is 2.9% and 2.89 (66.7) %.

**Q.** And the “decrease in the metabolite-to-parent AUC ratio” value (CYP3A [1]; [11])?
**A.** Its value is 85%.

**Q.** And the Metabolite-to-parent ratio (CYP3A [1]; midazolam alone (Day 1), geometric mean (CV%))?
**A.** Its Metabolite-to-parent ratio is 19.3% and 19.3 (66.3) %.

**Q.** Which results are given for `Cc1ncc2n1-c1ccc(Cl)cc1C(c1ccccc1F)=NC2` [Midazolam, midazolam]?
**A.** Tmax (CYP3A [1]; human, plasma, oral): ~1 h; AUC(0-inf) (CYP3A [1]; human, plasma, oral, treatment midazolam + ceritinib 750 mg QD for 3 weeks, linear mixed effects model): 393 ng·h/mL; Cmax (CYP3A [1]; human, plasma, oral, treatment midazolam + ceritinib 750 mg QD for 3 weeks, linear mixed effects model, read-out: Cmax, adjusted geometric mean): 42 ng/mL; AUC(0-inf) (CYP3A [1]; human, plasma, oral, treatment midazolam alone, linear mixed effects model): 72.5 ng·h/mL; Cmax (CYP3A [1]; human, plasma, oral, treatment midazolam alone, linear mixed effects model, read-out: Cmax, adjusted geometric mean): 23 ng/mL; half-life (CYP3A [1]; human, plasma, po, 2.5 mg, midazolam 2.5 mg single oral dose alone (Day 1), geometric mean (CV%)): 6 h; Cmax (CYP3A [1]; human, plasma, po, 2.5 mg, midazolam 2.5 mg single oral dose alone (Day 1), patient plasma, geometric mean (CV%), read-out: Cmax): 23 ng/mL; AUC(0-t) (CYP3A [1]; human, plasma, po, 2.5 mg, read-out: AUC0–144 h): 70.2 ng·h/mL; Tmax (CYP3A [1]; human, plasma, po, 2.5 mg, read-out: Tmax): 0.5 h; half-life (CYP3A [1]; human, plasma, po, midazolam 2.5 mg single oral dose + ceritinib 750 mg QD (Day 28), geometric mean (CV%)): 15 h; Cmax (CYP3A [1]; human, plasma, po, midazolam 2.5 mg single oral dose + ceritinib 750 mg QD at steady state (Day 28), patient plasma, geometric mean (CV%), read-out: Cmax): 42 ng/mL; CL/F (CYP3A [1]; [12]): 6.36 L/h; T1/2 (CYP3A [1]; [12]): 15.4 (37.4) h; CL/F (CYP3A [1]; [13]): 34.5 L/h; T1/2 (CYP3A [1]; [13]): 6.05 (47.8) h; decrease in apparent clearance (CL/F) of midazolam (CYP3A [1]; [11]): approximately 80%; predicted increase of midazolam AUC (CYP3A [2]; ceritinib dosed to steady-state + single oral dose midazolam 5 mg): 6 fold; predicted increase of midazolam AUC (CYP3A [2]; single dose ceritinib 750 mg + single oral dose midazolam 5 mg): 30%

**Q.** What does the source list for `Cc1cc(Nc2ncc(Cl)c(Nc3ccccc3S(=O)(=O)C(C)C)n2)c(OC(C)C)cc1C1CCNCC1` [ceritinib]?
**A.** classification as CYP3A inhibitor (CYP3A [1]): strong inhibitor of CYP3A; classification as CYP3A inhibitor (CYP3A [1]; listed as Ceritinib): strong CYP3A inhibitor; deaths suspected to be treatment related ([3]; all patients N=33): None; patients who died during the study ([3]; all patients N=33, cause study disease): 8 patients; deaths during the on-treatment period ([3]; within 30 days of last dose of ceritinib): 4 deaths; ORR ([4]; 19 patients with NSCLC, 95% CI: 20.3, 66.5): 42.1%; DCR ([4]; 19 patients with NSCLC, 95% CI: 38.4, 83.7): 63.2%; Best overall response Unknown [4, 14]: 6 (18.2) n (%); Complete response (CR) [4, 14]: 1 (3.0) n (%); Non-CR/Non-PD [4, 14]: 2 (6.1) n (%); Partial response (PR) [4, 14]: 8 (24.2) n (%); Progressive disease (PD) [4, 14]: 12 (36.4) n (%); Best overall response Unknown [4, 15]: 4 (21.1) n (%); Complete response (CR) [4, 15]: 1 (5.3) n (%); Non-CR/Non-PD [4, 15]: 2 (10.5) n (%); Partial response (PR) [4, 15]: 7 (36.8) n (%); Progressive disease (PD) [4, 15]: 3 (15.8) n (%); Best overall response Unknown [4, 16]: 2 (14.3) n (%); Complete response (CR) [4, 16]: 0 n (%); Non-CR/Non-PD [4, 16]: 0 n (%); Partial response (PR) [4, 16]: 1 (7.1) n (%); Progressive disease (PD) [4, 16]: 9 (64.3) n (%); ORR ([4]; overall, all 33 patients, 95% CI: 13.3, 45.5): 27.3%; DCR ([4]; overall, all 33 patients, 95% CI: 28.1, 63.6): 45.5%; classification as CYP2C9 inhibitor (CYP2C9 [5]): weak inhibitor of CYP2C9; classification as CYP2C9 inhibitor (CYP2C9 [5]; listed as Ceritinib): weak CYP2C9 inhibitor; IC50 (CYP3A4/5; [17]): 200 nM; Ki (CYP3A4/5; [18]): 160 nM; mode of inhibition of metabolism of midazolam (CYP3A substrate) (CYP3A4/5; pooled HLMs): competitively inhibited; inhibitor concentration associated with 50% maximal inactivation rate [Ki] (CYP3A4/5; time-dependent inhibition of CYP3A, HLM): 1470 nM; IC50 (CYP2C9 [6]; [17]): 2000 nM; Ki (CYP2C9 [6]; [18]): 240 nM; time-dependent inhibition (CYP2C9 [6]; [19]): no apparent time-dependent inhibition; mode of inhibition of metabolism of diclofenac (CYP2C9 substrate) (CYP2C9 [6]; pooled HLMs): competitively inhibited; time-dependent inhibition (CYP1A2; [19]): no apparent time-dependent inhibition; inhibition at clinically relevant concentrations (CYP1A2): unlikely to inhibit; reversible inhibition (CYP2D6; [20]): reversibly inhibits; time-dependent inhibition (CYP2D6; [19]): no apparent time-dependent inhibition; inhibition at clinically relevant concentrations (CYP2D6): unlikely to inhibit; reversible inhibition (CYP2B6; [20]): reversibly inhibits; inhibition at clinically relevant concentrations (CYP2B6): unlikely to inhibit; inhibition at clinically relevant concentrations (CYP2C8): unlikely to inhibit; inhibition at clinically relevant concentrations (CYP2C19): unlikely to inhibit; reversible inhibition (CYP2A6): reversibly inhibits; share of hepatic oxidative metabolism via CYP3A (CYP3A [7]): > 90%; Cmax at steady-state ([8]; observed in earlier clinical trials): 1010 ng/mL; Cmax ([8]; observed in earlier clinical trials, read-out: Cmax at steady-state): 1800 nM; time to steady-state ([8]; repeat daily dosing): 2–3 weeks
